Test results from PubChem BioAssay AID2060491 (Molecular Pharmacology Branch, DTP, NCI, 2025).

Tested on: 857933-349-R-J2-PDC complex spheroids, viability
Experiment: Anticancer human tumor 857933-349-R-J2-PDC patient-derived colon adenocarcinoma cell line growth inhibition [GQUAD]
Conditions: for IC50: curve of first compound; for viability, T/C: stronger effect = lower value
Summary of the method: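 Viability of tumor cells grown as complex spheroids with endothelial and stromal cells, exposed to drug combinations. Top concentration at or near clinical Cmax (else 10 microM), diluted in half-log increments.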

[1] = second compound 0.0316 µM, first compound 0.0316 µM
[2] = second compound 0.0316 µM, first compound 0.316 µM
[3] = second compound 0.1 µM, first compound 0.0316 µM
[4] = second compound 0.1 µM, first compound 0.316 µM
[5] = second compound 0.316 µM, first compound 0.0316 µM
[6] = second compound 0.316 µM, first compound 0.316 µM
[7] = second compound 1 µM, first compound 0.0316 µM
[8] = second compound 1 µM, first compound 0.316 µM
[9] = second compound 3.16 µM, first compound 0.0316 µM
[10] = second compound 3.16 µM, first compound 0.316 µM
[11] = second compound 10 µM, first compound 0.0316 µM
[12] = second compound 10 µM, first compound 0.316 µM
[13] = second compound 0.0316 µM, first compound 0.000999 µM
[14] = second compound 0.0316 µM, first compound 0.00316 µM
[15] = second compound 0.0316 µM, first compound 0.00999 µM
[16] = second compound 0.0316 µM, first compound 0.0999 µM
[17] = second compound 0.1 µM, first compound 0.000999 µM
[18] = second compound 0.1 µM, first compound 0.00316 µM
[19] = second compound 0.1 µM, first compound 0.00999 µM
[20] = second compound 0.1 µM, first compound 0.0999 µM
[21] = second compound 0.316 µM, first compound 0.000999 µM
[22] = second compound 0.316 µM, first compound 0.00316 µM
[23] = second compound 0.316 µM, first compound 0.00999 µM
[24] = second compound 0.316 µM, first compound 0.0999 µM
[25] = second compound 1 µM, first compound 0.000999 µM
[26] = second compound 1 µM, first compound 0.00316 µM
[27] = second compound 1 µM, first compound 0.00999 µM
[28] = second compound 1 µM, first compound 0.0999 µM
[29] = second compound 3.16 µM, first compound 0.000999 µM
[30] = second compound 3.16 µM, first compound 0.00316 µM
[31] = second compound 3.16 µM, first compound 0.00999 µM
[32] = second compound 3.16 µM, first compound 0.0999 µM
[33] = second compound 10 µM, first compound 0.000999 µM
[34] = second compound 10 µM, first compound 0.00316 µM
[35] = second compound 10 µM, first compound 0.00999 µM
[36] = second compound 10 µM, first compound 0.0999 µM
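Further: spheroids exposed to compounds for one week before readout.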
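Wherever viability, T/C is given: percent viability relative to vehicle DMSO wells taken as 100%.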

## C=CC(=O)N1CCN(c2nc(=O)n(-c3c(C)ccnc3C(C)C)c3nc(-c4c(O)cccc4F)c(F)cc23)C(C)C1 (stereo unspecified) + CN(C)c1ccc(Nc2c3ccc(NC(=O)CCN4CCCC4)cc3nc3cc(NC(=O)CCN4CCCC4)ccc23)cc1
Second compound 0.0316 µM
  IC50: > 10 µM
Second compound 0.1 µM
  IC50: > 10 µM
Second compound 0.316 µM
  IC50: > 10 µM
Second compound 1 µM
  IC50: > 10 µM
Second compound 3.16 µM
  IC50: > 10 µM
Second compound 10 µM
  IC50: > 10 µM
[1]
  viability, T/C: 114%
Second compound 0.0316 µM, first compound 0.1 µM
  viability, T/C: 91.7%
[2]
  viability, T/C: 108%
Second compound 0.0316 µM, first compound 1 µM
  viability, T/C: 97.3%
Second compound 0.0316 µM, first compound 3.16 µM
  viability, T/C: 114%
Second compound 0.0316 µM, first compound 10 µM
  viability, T/C: 112%
[3]
  viability, T/C: 104%
Second compound 0.1 µM, first compound 0.1 µM
  viability, T/C: 102%
[4]
  viability, T/C: 102%
Second compound 0.1 µM, first compound 1 µM
  viability, T/C: 102%
Second compound 0.1 µM, first compound 3.16 µM
  viability, T/C: 108%
Second compound 0.1 µM, first compound 10 µM
  viability, T/C: 113%
[5]
  viability, T/C: 105%
Second compound 0.316 µM, first compound 0.1 µM
  viability, T/C: 99.5%
[6]
  viability, T/C: 99%
Second compound 0.316 µM, first compound 1 µM
  viability, T/C: 99.8%
Second compound 0.316 µM, first compound 3.16 µM
  viability, T/C: 112%
Second compound 0.316 µM, first compound 10 µM
  viability, T/C: 107%
[7]
  viability, T/C: 97.2%
Second compound 1 µM, first compound 0.1 µM
  viability, T/C: 90.8%
[8]
  viability, T/C: 102%
Second compound 1 µM, first compound 1 µM
  viability, T/C: 99.6%
Second compound 1 µM, first compound 3.16 µM
  viability, T/C: 113%
Second compound 1 µM, first compound 10 µM
  viability, T/C: 98.3%
[9]
  viability, T/C: 90.2%
Second compound 3.16 µM, first compound 0.1 µM
  viability, T/C: 79.5%
[10]
  viability, T/C: 91.4%
Second compound 3.16 µM, first compound 1 µM
  viability, T/C: 89.9%
Second compound 3.16 µM, first compound 3.16 µM
  viability, T/C: 100%
Second compound 3.16 µM, first compound 10 µM
  viability, T/C: 88%
[11]
  viability, T/C: 73%
Second compound 10 µM, first compound 0.1 µM
  viability, T/C: 77.9%
[12]
  viability, T/C: 70.8%
Second compound 10 µM, first compound 1 µM
  viability, T/C: 77.5%
Second compound 10 µM, first compound 3.16 µM
  viability, T/C: 82.3%
Second compound 10 µM, first compound 10 µM
  viability, T/C: 79.3%

## CC[C@@]1(O)C(=O)OCc2c1cc1n(c2=O)Cc2cc3c(CN(C)C)c(O)ccc3nc2-1 + CN(C)c1ccc(Nc2c3ccc(NC(=O)CCN4CCCC4)cc3nc3cc(NC(=O)CCN4CCCC4)ccc23)cc1
Second compound 0.0316 µM
  IC50: 0.262 µM
Second compound 0.1 µM
  IC50: 0.272 µM
Second compound 0.316 µM
  IC50: 0.277 µM
Second compound 1 µM
  IC50: 0.296 µM
Second compound 3.16 µM
  IC50: > 0.316 µM
Second compound 10 µM
  IC50: > 0.316 µM
[13]
  viability, T/C: 101%
[14]
  viability, T/C: 103%
[15]
  viability, T/C: 101%
[1]
  viability, T/C: 98.2%
[16]
  viability, T/C: 67%
[2]
  viability, T/C: 46.7%
[17]
  viability, T/C: 105%
[18]
  viability, T/C: 109%
[19]
  viability, T/C: 95.3%
[3]
  viability, T/C: 97.7%
[20]
  viability, T/C: 70.5%
[4]
  viability, T/C: 47%
[21]
  viability, T/C: 108%
[22]
  viability, T/C: 101%
[23]
  viability, T/C: 98.7%
[5]
  viability, T/C: 89.6%
[24]
  viability, T/C: 80.7%
[6]
  viability, T/C: 45.1%
[25]
  viability, T/C: 99.7%
[26]
  viability, T/C: 99.1%
[27]
  viability, T/C: 95.9%
[7]
  viability, T/C: 88.5%
[28]
  viability, T/C: 77.1%
[8]
  viability, T/C: 48%
[29]
  viability, T/C: 94.2%
[30]
  viability, T/C: 77.4%
[31]
  viability, T/C: 84.7%
[9]
  viability, T/C: 76.1%
[32]
  viability, T/C: 77.8%
[10]
  viability, T/C: 54.5%
[33]
  viability, T/C: 72.3%
[34]
  viability, T/C: 76.8%
[35]
  viability, T/C: 69.5%
[11]
  viability, T/C: 69.9%
[36]
  viability, T/C: 68.7%
[12]
  viability, T/C: 59%

## CCc1c2c(nc3ccc(O)cc13)-c1cc3c(c(=O)n1C2)COC(=O)[C@]3(O)CC + CN(C)c1ccc(Nc2c3ccc(NC(=O)CCN4CCCC4)cc3nc3cc(NC(=O)CCN4CCCC4)ccc23)cc1
Second compound 0.0316 µM
  IC50: 0.0161 µM
Second compound 0.1 µM
  IC50: 0.0156 µM
Second compound 0.316 µM
  IC50: 0.0153 µM
Second compound 1 µM
  IC50: 0.0132 µM
Second compound 3.16 µM
  IC50: 0.0145 µM
Second compound 10 µM
  IC50: 0.024 µM
[13]
  viability, T/C: 95.6%
[14]
  viability, T/C: 78.4%
[15]
  viability, T/C: 55.4%
[1]
  viability, T/C: 40.4%
[16]
  viability, T/C: 21.6%
[2]
  viability, T/C: 5.95%
[17]
  viability, T/C: 94.2%
[18]
  viability, T/C: 81.8%
[19]
  viability, T/C: 59.9%
[3]
  viability, T/C: 33.8%
[20]
  viability, T/C: 18.5%
[4]
  viability, T/C: 7.59%
[21]
  viability, T/C: 98%
[22]
  viability, T/C: 82.3%
[23]
  viability, T/C: 57.6%
[5]
  viability, T/C: 34%
[24]
  viability, T/C: 21.5%
[6]
  viability, T/C: 5.15%
[25]
  viability, T/C: 93.5%
[26]
  viability, T/C: 77%
[27]
  viability, T/C: 55.9%
[7]
  viability, T/C: 31.4%
[28]
  viability, T/C: 20.2%
[8]
  viability, T/C: 5.78%
[29]
  viability, T/C: 89.9%
[30]
  viability, T/C: 77.6%
[31]
  viability, T/C: 58.3%
[9]
  viability, T/C: 31.9%
[32]
  viability, T/C: 21.7%
[10]
  viability, T/C: 7.69%
[33]
  viability, T/C: 70.4%
[34]
  viability, T/C: 67.4%
[35]
  viability, T/C: 59%
[11]
  viability, T/C: 48.2%
[36]
  viability, T/C: 27.8%
[12]
  viability, T/C: 14.2%
